Patent US20230085307A1, “PYRIDAZINONE COMPOUND AND HERBICIDE” (NISSAN CHEMICAL CORPORATION, priority 2019, published 2023)

How the values were obtained:
[1] = test system: velvetleaf; test: Test Example 5: herbicidal effect by foliage application, plastic box (Table 20, symbol M); format: in vivo, velvetleaf (Abutilon theophrasti); settings: foliage application, AAH 320 g/ha
Outline: (§1)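 Plants sown in sterilized diluvial soil and grown 14 days in a greenhouse at 25° C to 30° C, then sprayed on the foliage with the compound's emulsion diluted in water to a predetermined herbicide amount. Injury to weeds and crops scored three weeks after application on a visual rating scale.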

[2] = test system: barnyard grass; test: Test Example 3: herbicidal effect by foliage application, Wagner pot (Table 18, symbol H); format: in vivo, barnyard grass (Echinochloa crus-galli)
Outline: (§2)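 Plants were sown in alluvial soil held under 0.1–0.5 cm standing water and grown 14 days in a greenhouse at 25–30 °C. An emulsifiable formulation, water-diluted to the set dose, was then sprayed onto the foliage, and effects were scored three weeks later using previously defined criteria.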

[3] = test system: velvetleaf; test: Test Example 4: herbicidal effect by soil treatment (Table 19, symbol M); format: in vivo, velvetleaf (Abutilon theophrasti)
Text: (§3) [Test Example 4] Herbicidal Effect Test by Soil Treatment
(§4) Sterilized diluvial soil was placed in a plastic box having a length of 21 cm, a width of 13 cm, and a depth of 7 cm. The seeds of each of southern crabgrass, green foxtail, barnyard grass, wild oat, blackgrass, Italian ryegrass, windgrass, velvetleaf, redroot pigweed, lambsquarters, chickweed, false cleavers, persian speedwell, corn, soybean, rice, wheat, beet, and rapeseed were sowed in a spot-like manner and covered with the soil having a thickness of about 1.5 cm. Subsequently, the emulsion agent of the compound of the present invention prepared according to Formulation Example 2 was diluted with water so as to achieve a predetermined herbicide amount, and the diluted emulsion agent was uniformly applied to the surface of the soil with a small-sized spray. The plastic box was placed in a greenhouse at 25° C. to 30° C. for growth of the plants. Three weeks after the herbicide application, the effect of the herbicide on each plant was evaluated according to the criteria of Test Example 1.

[4] = test system: lambsquarters; test: Test Example 5: herbicidal effect by foliage application, plastic box (Table 20, symbol O); format: in vivo, lambsquarters (Chenopodium album); settings: foliage application, AAH 320 g/ha
Outline: as §1

[5] = test system: blackgrass; test: Test Example 5: herbicidal effect by foliage application, plastic box (Table 20, symbol J); format: in vivo, blackgrass (Alopecurus myosuroides); settings: foliage application, AAH 320 g/ha, three weeks after application
Outline: as §1

[6] = test system: southern crabgrass; test: Test Example 4: herbicidal effect by soil treatment (Table 19, symbol F); format: in vivo, southern crabgrass (Digitaria ciliaris)
Text: as §3, §4

[7] = test system: Chinese sprangletop; test: Test Example 3: herbicidal effect by foliage application, Wagner pot (Table 18, symbol D); format: in vivo, chinese sprangletop (Leptochloa chinensis)
Outline: as §2

[8] = test system: chickweed; test: Test Example 4: herbicidal effect by soil treatment (Table 19, symbol P); format: in vivo, common chickweed (Stellaria media)
Text: as §3, §4

[9] = test system: southern crabgrass; test: Test Example 5: herbicidal effect by foliage application, plastic box (Table 20, symbol F); format: in vivo, southern crabgrass (Digitaria ciliaris); settings: foliage application, AAH 320 g/ha
Outline: as §1

[10] = test system: barnyard grass; test: Test Example 4: herbicidal effect by soil treatment (Table 19, symbol H); format: in vivo, barnyard grass (Echinochloa crus-galli)
Text: as §3, §4

[11] = test system: barnyard grass; test: Test Example 5: herbicidal effect by foliage application, plastic box (Table 20, symbol H); format: in vivo, barnyard grass (Echinochloa crus-galli); settings: foliage application, AAH 320 g/ha
Outline: as §1

[12] = test system: redroot pigweed; test: Test Example 5: herbicidal effect by foliage application, plastic box (Table 20, symbol N); format: in vivo, redroot pigweed (Amaranthus retroflexus); settings: foliage application, AAH 320 g/ha
Outline: as §1

[13] = test system: blackgrass; test: Test Example 4: herbicidal effect by soil treatment (Table 19, symbol J); format: in vivo, blackgrass (Alopecurus myosuroides)
Text: as §3, §4

[14] = test system: wild oat; test: Test Example 4: herbicidal effect by soil treatment (Table 19, symbol I); format: in vivo, wild oat (Avena fatua)
Text: as §3, §4

[15] = test system: windgrass; test: Test Example 4: herbicidal effect by soil treatment (Table 19, symbol L); format: in vivo, windgrass (Apera spica-venti)
Text: as §3, §4

[16] = test system: chickweed; test: Test Example 5: herbicidal effect by foliage application, plastic box (Table 20, symbol P); format: in vivo, common chickweed (Stellaria media); settings: foliage application, AAH 320 g/ha
Outline: as §1

[17] = test system: rice flat sedge; test: Test Example 3: herbicidal effect by foliage application, Wagner pot (Table 18, symbol E); format: in vivo, rice flat sedge (Cyperus iria)
Outline: as §2

[18] = test system: wild oat; test: Test Example 5: herbicidal effect by foliage application, plastic box (Table 20, symbol I); format: in vivo, wild oat (Avena fatua); settings: foliage application, AAH 320 g/ha
Outline: as §1

[19] = test system: Italian ryegrass; test: Test Example 5: herbicidal effect by foliage application, plastic box (Table 20, symbol K); format: in vivo, Italian ryegrass (Lolium multiflorum); settings: foliage application, AAH 320 g/ha
Outline: as §1

[20] = test system: lambsquarters; test: Test Example 4: herbicidal effect by soil treatment (Table 19, symbol O); format: in vivo, lambsquarters (Chenopodium album)
Outline: (§5)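 Three weeks of greenhouse growth at 25° C. to 30° C. followed a uniform surface spray of water-diluted emulsion at a predetermined herbicide amount. Seeds had been sown beforehand under about 1.5 cm of sterilized diluvial soil. Grading followed criteria set out in an earlier test.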

[21] = test system: Italian ryegrass; test: Test Example 4: herbicidal effect by soil treatment (Table 19, symbol K); format: in vivo, Italian ryegrass (Lolium multiflorum)
Text: as §3, §4

[22] = test system: windgrass; test: Test Example 5: herbicidal effect by foliage application, plastic box (Table 20, symbol L); format: in vivo, windgrass (Apera spica-venti); settings: foliage application, AAH 320 g/ha
Outline: as §1

[23] = test system: green foxtail; test: Test Example 5: herbicidal effect by foliage application, plastic box (Table 20, symbol G); format: in vivo, green foxtail (Setaria viridis); settings: foliage application, AAH 320 g/ha
Outline: as §1

[24] = test system: green foxtail; test: Test Example 4: herbicidal effect by soil treatment (Table 19, symbol G); format: in vivo, green foxtail (Setaria viridis)
Outline: as §5

[25] = test system: persian speedwell; test: Test Example 5: herbicidal effect by foliage application, plastic box (Table 20, symbol R); format: in vivo, Persian speedwell (Veronica persica); settings: foliage application, AAH 320 g/ha
Outline: as §1

[26] = test system: redroot pigweed; test: Test Example 4: herbicidal effect by soil treatment (Table 19, symbol N); format: in vivo, redroot pigweed (Amaranthus retroflexus)
Outline: as §5

[27] = evaluated three weeks after application
[28] = amount of applied herbicide 320 g/ha

Cc1nn(C)c(=O)c(-c2c(-c3ccc([Si](C)(C)C)cc3)sc3ccccc23)c1O [1-153]
M: velvetleaf, herbicidal effect ([1]; three weeks after application): 2 (Herbicidal rate of 20% or more and less than 40%)
herbicidal effect on H (barnyard grass), rating 0-5 ([2]; 320 g/ha): 4 (Herbicidal rate of 70% or more and less than 90%)
M: velvetleaf, herbicidal effect rating ([3]; AAH 320 g/ha): 0 (Herbicidal rate of 5% or less (almost no effect))
O: lambsquarters, herbicidal effect ([4]; three weeks after application): 4 (Herbicidal rate of 70% or more and less than 90%)
J: blackgrass, herbicidal effect [5]: 0 (Herbicidal rate of 5% or less (almost no effect))
F: southern crabgrass, herbicidal effect rating ([6]; AAH 320 g/ha): 2 (Herbicidal rate of 20% or more and less than 40%)
herbicidal effect on D (Chinese sprangletop), rating 0-5 ([7]; 320 g/ha): 2 (Herbicidal rate of 20% or more and less than 40%)
P: chickweed, herbicidal effect rating ([8]; AAH 320 g/ha): 0 (Herbicidal rate of 5% or less (almost no effect))
F: southern crabgrass, herbicidal effect ([9]; three weeks after application): 0 (Herbicidal rate of 5% or less (almost no effect))
H: barnyard grass, herbicidal effect rating ([10]; AAH 320 g/ha): 0 (Herbicidal rate of 5% or less (almost no effect))
H: barnyard grass, herbicidal effect ([11]; three weeks after application): 0 (Herbicidal rate of 5% or less (almost no effect))
N: redroot pigweed, herbicidal effect ([12]; three weeks after application): 5 (Herbicidal rate of 90% or more (almost completely withered))
J: blackgrass, herbicidal effect rating ([13]; AAH 320 g/ha): 0 (Herbicidal rate of 5% or less (almost no effect))
I: wild oat, herbicidal effect rating ([14]; AAH 320 g/ha): 0 (Herbicidal rate of 5% or less (almost no effect))
L: windgrass, herbicidal effect rating ([15]; AAH 320 g/ha): 0 (Herbicidal rate of 5% or less (almost no effect))
P: chickweed, herbicidal effect ([16]; three weeks after application): 0 (Herbicidal rate of 5% or less (almost no effect))
herbicidal effect on E (rice flat sedge), rating 0-5 ([17]; 320 g/ha): 3 (Herbicidal rate of 40% or more and less than 70%)
I: wild oat, herbicidal effect ([18]; three weeks after application): 0 (Herbicidal rate of 5% or less (almost no effect))
K: Italian ryegrass, herbicidal effect ([19]; three weeks after application): 0 (Herbicidal rate of 5% or less (almost no effect))
O: lambsquarters, herbicidal effect rating ([20]; AAH 320 g/ha): 5 (Herbicidal rate of 90% or more (almost completely withered))
K: Italian ryegrass, herbicidal effect rating ([21]; AAH 320 g/ha): 0 (Herbicidal rate of 5% or less (almost no effect))
L: windgrass, herbicidal effect ([22]; three weeks after application): 0 (Herbicidal rate of 5% or less (almost no effect))
G: green foxtail, herbicidal effect ([23]; three weeks after application): 3 (Herbicidal rate of 40% or more and less than 70%)
G: green foxtail, herbicidal effect rating ([24]; AAH 320 g/ha): 3 (Herbicidal rate of 40% or more and less than 70%)
R: persian speedwell, herbicidal effect ([25]; three weeks after application): 5 (Herbicidal rate of 90% or more (almost completely withered))
N: redroot pigweed, herbicidal effect rating ([26]; AAH 320 g/ha): 3 (Herbicidal rate of 40% or more and less than 70%)

CCCC(=O)Oc1c(C)nn(C)c(=O)c1-c1c(-c2cccc(OCc3ccccc3)c2)sc2ccc(F)cc12 [2-268]
M: velvetleaf, herbicidal effect (criteria 0-5) [1, 27]: 1 (Herbicidal rate of 5% or more and less than 20%)
herbicidal effect on H: barnyard grass [2, 28]: 4 (Herbicidal rate of 70% or more and less than 90%)
herbicidal effect on M: velvetleaf [3, 28]: 0 (Herbicidal rate of 5% or less (almost no effect))
O: lambsquarters, herbicidal effect (criteria 0-5) [4, 27]: 3 (Herbicidal rate of 40% or more and less than 70%)
herbicidal effect on F: southern crabgrass [6, 28]: 0 (Herbicidal rate of 5% or less (almost no effect))
herbicidal effect on D: Chinese sprangletop [7, 28]: 3 (Herbicidal rate of 40% or more and less than 70%)
herbicidal effect on P: chickweed [8, 28]: 0 (Herbicidal rate of 5% or less (almost no effect))
F: southern crabgrass, herbicidal effect (criteria 0-5) [9, 27]: 1 (Herbicidal rate of 5% or more and less than 20%)
herbicidal effect on H: barnyard grass [10, 28]: 0 (Herbicidal rate of 5% or less (almost no effect))
H: barnyard grass, herbicidal effect (criteria 0-5) [11, 27]: 4 (Herbicidal rate of 70% or more and less than 90%)
N: redroot pigweed, herbicidal effect (criteria 0-5) [12, 27]: 3 (Herbicidal rate of 40% or more and less than 70%)
herbicidal effect on J: blackgrass [13, 28]: 0 (Herbicidal rate of 5% or less (almost no effect))
herbicidal effect on I: wild oat [14, 28]: 0 (Herbicidal rate of 5% or less (almost no effect))
herbicidal effect on L: windgrass [15, 28]: 0 (Herbicidal rate of 5% or less (almost no effect))
P: chickweed, herbicidal effect (criteria 0-5) [16, 27]: 5 (Herbicidal rate of 90% or more (almost completely withered))
herbicidal effect on E: rice flat sedge [17, 28]: 3 (Herbicidal rate of 40% or more and less than 70%)
I: wild oat, herbicidal effect (criteria 0-5) [18, 27]: 0 (Herbicidal rate of 5% or less (almost no effect))
K: Italian ryegrass, herbicidal effect (criteria 0-5) [19, 27]: 2 (Herbicidal rate of 20% or more and less than 40%)
herbicidal effect on O: lambsquarters [20, 28]: 0 (Herbicidal rate of 5% or less (almost no effect))
herbicidal effect on K: Italian ryegrass [21, 28]: 3 (Herbicidal rate of 40% or more and less than 70%)
L: windgrass, herbicidal effect (criteria 0-5) [22, 27]: 1 (Herbicidal rate of 5% or more and less than 20%)
G: green foxtail, herbicidal effect (criteria 0-5) [23, 27]: 4 (Herbicidal rate of 70% or more and less than 90%)
herbicidal effect on G: green foxtail [24, 28]: 0 (Herbicidal rate of 5% or less (almost no effect))
R: persian speedwell, herbicidal effect (criteria 0-5) [25, 27]: 4 (Herbicidal rate of 70% or more and less than 90%)
herbicidal effect on N: redroot pigweed [26, 28]: 0 (Herbicidal rate of 5% or less (almost no effect))
